Test results reported in patent US7666867B2, “Heteroindanes: a new class of potent cannabimimetic ligands” (University of Connecticut, priority 2001, dated 2010).
Like-named read-outs stand apart in the source and are kept apart here.

What was measured:
[1] = target: T1, CB1 receptor (Rattus norvegicus, UniProt P20272); experiment: CB1 receptor binding assay, [3H]CP-55,940 displacement, rat forebrain membranes
T1 construct: membranes were prepared from rat forebrain membranes; from tissue; host or cells: rat forebrain membranes
T1 sequence (P20272 whole entry): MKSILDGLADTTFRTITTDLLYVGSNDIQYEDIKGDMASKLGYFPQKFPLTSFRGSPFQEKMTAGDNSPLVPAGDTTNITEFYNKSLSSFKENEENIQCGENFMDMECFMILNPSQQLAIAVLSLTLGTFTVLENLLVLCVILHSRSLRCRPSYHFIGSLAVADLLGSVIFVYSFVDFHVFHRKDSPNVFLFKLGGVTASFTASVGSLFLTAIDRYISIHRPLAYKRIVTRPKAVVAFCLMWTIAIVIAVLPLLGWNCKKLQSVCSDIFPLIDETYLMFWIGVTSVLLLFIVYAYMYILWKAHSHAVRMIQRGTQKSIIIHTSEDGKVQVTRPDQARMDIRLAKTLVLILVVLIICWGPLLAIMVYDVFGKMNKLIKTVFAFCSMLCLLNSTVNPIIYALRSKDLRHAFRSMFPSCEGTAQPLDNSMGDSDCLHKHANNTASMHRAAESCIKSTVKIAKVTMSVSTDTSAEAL
Description: The inventive analogs were tested for CB2 receptor binding affinity and for CB1 receptor affinity (to determine selectivity for the CB2 receptor). As used herein, “binding affinity” is represented by the IC50 value which is the concentration of an analog required to occupy the 50% of the total number (Bmax) of the receptors. The lower the IC50 value the higher the binding affinity. […] For the CB1 receptor binding studies, membranes were prepared from rat forebrain membranes according to the procedure of P. R. Dodd et al, A Rapid Method for Preparing Synaptosomes: Comparison with Alternative Procedures, Brain Res., 107-118 (1981). The binding of the novel analogues to the CB1 cannabinold receptor was assessed as described in W. A. Devane et al, Determination and Characterization of a Cannabinoid Receptor in a Rat Brain, Mol. Pharmacol., 34, 605-613 (1988) and A. Charalambous et al, 5′-azido Δ^8− THC: A Novel Photoaffinity Label for the Cannabinoid Receptor, J. Med. Chem., 35, 3076-3079 (1992) with the following changes. The above articles are incorporated by reference herein.
Membranes, previously frozen at −80° C., were thawed on ice. To the stirred suspension was added three volumes of TME (25 mM Tris-HCl buffer, 5 mM MgCl2 and 1 mM EDTA) at a pH 7.4. The suspension was incubated at 4° C. for 30 min. At the end of the incubation, the membranes were pelleted and washed three times with TME.
(§1) The treated membranes were subsequently used in the binding assay described below. Approximately 30 μg of membranes were incubated in silanized 96-well microtiter plate with TME containing 0.1% essentially fatty acid-free bovine serum albumin (BSA), 0.8 nM [^3H] CP-55,940, and various concentrations of test materials in a final volume of […]. The assays were incubated for 1 hour at 30° C. and then immediately filtered using Packard Filtermate 196 harvester and Whatman GF/C filterplates and washed with wash buffer (TME) containing 0.5% BSA. Radioactivity was detected using MicroScint 20 scintillation cocktail added directly to the dried filterplates, and the filterplates were counted using a Packard Instruments Top-Count. Nonspecific binding was assessed using 100 nM CP-55,940. Data collected from three independent experiments performed with duplicate determinations was normalized between 100% and 0% specific binding for [^3H] CP-55,940, determined using buffer and 100 nM CP-55,940. The normalized data was analyzed using a 4-parameter nonlinear logistic equation to yield IC50 values. Data from at least two indeperident experiments performed in duplicate was used to calculate IC50 values which were converted to Ki values using the assumptions of Cheng et al, Relationship Between the Inhibition Constant (Ki) and the concentratiori of Inhibitor which causes 50% Inhibition (IC50) of an Enzymatic Reaction, Biochem. Pharmacol., 22, 3099-3102, (1973), which is incorporated by reference herein.

[2] = target: T2, CB2 receptor (Mus musculus, UniProt P47936); experiment: CB2 receptor binding assay, [3H]CP-55,940 displacement, mouse spleen membranes
T2 construct: membranes were prepared from frozen mouse spleen; from tissue; host or cells: frozen mouse spleen membranes
T2 sequence (P47936 whole entry): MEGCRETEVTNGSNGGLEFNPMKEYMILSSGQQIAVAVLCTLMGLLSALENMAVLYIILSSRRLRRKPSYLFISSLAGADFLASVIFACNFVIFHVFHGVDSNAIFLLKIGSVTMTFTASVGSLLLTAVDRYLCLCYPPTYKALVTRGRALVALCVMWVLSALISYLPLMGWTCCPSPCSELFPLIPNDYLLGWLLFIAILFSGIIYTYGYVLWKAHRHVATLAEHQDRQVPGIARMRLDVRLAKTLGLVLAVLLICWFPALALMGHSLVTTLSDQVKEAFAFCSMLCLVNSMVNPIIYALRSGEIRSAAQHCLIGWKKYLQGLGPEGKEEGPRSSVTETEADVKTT
Description: as §1
For the CB2 receptor binding studies, membranes were prepared from frozen mouse spleen essentially according to the procedure of P. R. Dodd et al, A Rapid Method for Preparing Synaptosomes: Comparison with Alternative Procedures, Brain Res., 226, 107-118 (1981) which is incorporated by reference herein. Silanized centrifuge tubes were used throughout to minimize receptor loss due to adsorption. The CB2 binding assay was conducted in the same manner as for the CB1 binding assay. The binding affinities (Ki) were also expressed in nanomoles (nM).

[3] = system: rats; experiment: Peripheral antinociception, paw withdrawal latency to thermal stimulus; format: in vivo, rat; conditions: ipsilateral i.paw injection, measured 25 min after injection, FIG. 1 and 2
Description: Using rats as test subjects, varied doses of some of the inventive compounds were injected subcutaneously in the dorsal surface of the paw (i.paw, 50 μl). Measurements were taken 25 min after i.paw injection. Assessment of antinociceptive action was made by evaluating the response latency to removal of the paw from a focused source of thermal stimulation, as described by T. P. Malan Jr., CB2 Cannabinoid Receptor-mediated Peridpheral Antinociception, Pain, 93, 239-245 (2001), the content of which is incorporated by reference herein. Rats were allowed to acclimate within Plexiglas enclosures on a clear glass plate maintained at 30° C. A radiant heat source (a high-intensity projector lamp) was focused onto the plantar surface of the hindpaw. Activation of the heat source activated a timer, which stopped when withdrawal of the paw was detected with a photodetector. A maximal cut-off of 40 seconds (s) was utilized to prevent tissue damage.
Antinociception is expressed as the percent of the maximum possible effect (% MPE), using the formula: % MPE=(WL-CL)/(CO-CL), where WL is the withdrawal latency obtained experimentally, CL is the control (baseline) value before drug administration, and CO is the cut-off value (40 s). Dose-response curves were generated. Significance was defined as P<0.05.

[4] = system: rats; experiment: Locomotor activity, rate of beam crossings in photocell apparatus; format: in vivo, rat; conditions: intravenous; for effect on locomotor activity: early after administration, FIG. 3 and 4
Description: Rats were injected with varied doses of either some of the inventive compounds or with WIN 55212-2, a known CB1/CB2 receptor agonist. The injected compounds were solubilized in DMSO:40% cyclodextrin (1:10) and intravenously administered.
Locomotor activity was assessed by measuring the rate of beam crossings by rats in a photocell apparatus according to the procedure of M. Cosenza et al, Locomotor Activity and Occupancy of Brain Cannabinoid CB1 Receptors by the Antagonist/Inverse Agonist AM281, Synapse, 38, 477-482 (2000).

[5] = rat forebrain membranes, 0.8 nM [3H]CP-55,940, read-out: Ki (nM) CB1

Row | Compound | Ki [1] [nM] | Ki [2] [nM] | Ki [1, 5] [nM] | antinociception to a thermal stimulus applied to the hindpaw [3] | cannabinoid-like behaviour in the locomotor assay [4] | effect on locomotor activity [4]
1 | CN1CCCCC1Cn1nc(C(=O)NC23CC4CC(CC(C4)C2)C3)c2ccccc21 (stereo not drawn) [compound 2] | 47.5 | 8.74 |  |  |  | 
2 | CN(C)CCCn1nc(C(=O)Nc2cccc3ccccc23)c2ccccc21 [compound 9] |  | 235 | 451 |  |  | 
3 | O=C(Nc1cccc2ccccc12)c1nn(CCCCCl)c2ccccc12 [compound 7] | 0.268 | 0.135 |  |  |  | 
4 | O=C(Nc1cccc2ccccc12)c1nn(CCCCI)c2ccccc12 [compound 8] | 13.7 | 27 |  |  |  | 
5 | O=C(NN1CCCCC1)c1nn(-c2ccccc2)c2cc(Br)ccc12 [compound 11] |  | 84.7 | 1850 |  |  | 
6 | O=C(NC12CC3CC(CC(C3)C1)C2)c1nn(CCCCCl)c2ccccc12 [compound 4] | 1.65 | 1.34 |  |  |  | 
7 | O=C(NC12CC3CC(CC(C3)C1)C2)c1nn(CCCCI)c2ccccc12 [compound 5] | 0.596 | 0.164 |  |  |  | 
8 | N#CCCCCn1nc(C(=O)NC23CC4CC(CC(C4)C2)C3)c2ccccc21 [compound 3] | 2.28 | 0.309 |  | produced dose-dependent antinociception | produced the typical cannabinoid-like catalepsy and inhibition of locomotion | significantly reduced locomotor activity
9 | O=C(NC12CC3CC(CC(C3)C1)C2)c1nn(CCN2CCOCC2)c2ccccc12 [compound 1] | 6.84 | 0.147 |  |  |  | 
10 | CN1CCCCC1Cn1nc(C(=O)Nc2cccc3ccccc23)c2ccccc21 (stereo not drawn) [compound 10] | 15 | 8.04 |  |  |  | 
11 | Cc1c(C(=O)c2cccc3ccccc23)c2cccc3c2n1[C@H](CN1CCOCC1)CO3 [WIN 55212-2, reference compound] |  |  |  |  | produced the typical cannabinoid-like catalepsy and inhibition of locomotion | significantly reduced locomotor activity
12 | CN(C)CCCn1nc(C(=O)NC23CC4CC(CC(C4)C2)C3)c2ccccc21 [compound 6] |  | 20.9 | 443 |  |  | 
